Measurements reported in paper PMC5159279 (Hypertension (Dallas, Tex. : 1979), 2016).

Key:
[1] = test system: mice with AngII-induced hypertension; assay: Radiotelemetry blood pressure, AngII-induced hypertensive mice; format: in vivo; details: AngII 1000 ng/kg/min by osmotic mini-pump; from a baseline of 110 mmHg
[2] = test system: arterioles from adipose biopsies of patients with hypertension; assay: Human ex vivo vasoreactivity, phenylephrine cumulative dose response; details: cumulative dose response without HbαX
[3] = test system: hemoglobin in red blood cells; assay: Red blood cell oxygen p50; details: fresh human blood; 5 minutes incubation; HbαX 30 μmol/L; n=3

Compound: Angiotensin II [AngII]
- systolic blood pressure on AngII [1]: ~ 170 mmHg

Compound: CNC[C@H](O)c1cccc(O)c1 [phenylephrine]
- responsiveness of human arterioles to PE [2]: responsive

Compound: FPYFSTKLTT [control peptide]
- oxygen p50 of hemoglobin in RBCs [3]: did not significantly change the oxygen p50
